Assay results reported in patent US20160073662A1, “PRESERVATIVE AND ADDITIVE FOR FOOD AND FEED” (priority 2014, published 2016).

Assay: Contact of acid solution with human skin
Conditions: solution with a pH of less than 0.5

O=S(=O)(O)O [sulfuric acid]
irritation of hand put into solution: an irritation would occur
